Data taken from patent US20070294785A1, “METHODS FOR […] DIVERSITY BY PERMUTATIONAL MUTAGENESIS” (Athenix Corporation, priority 2006, published 2007).

Tested on: BL21*DE3 competent E. coli cells
Experiment: Screening for glyphosate resistance on plates
Assay type: cell-based
Settings: M63+ agar plates, 50 mM glyphosate, 0.05 mM IPTG, 50 ug/ml kanamycin, 36 hours at 37° C.
Description: Library ligations were transformed into BL21*DE3 competent E. coli cells (Invitrogen). The transformations were performed according to the manufacturer's instructions with the following modifications. After incubation for 1 hour at 37° C. in SOC medium, the cells were sedimented by centrifugation (5 minutes, 1000×g, 4° C.). The cells were washed with 1 ml M63+, centrifuged again, and the supernatant decanted. The cells were washed a second time with 1 ml M63+ and resuspended in 200 ul M63+.
For selection of mutant GRG1 enzymes conferring glyphosate resistance to E. coli, the cells were plated onto M63+ agar medium plates containing 50 mM glyphosate, 0.05 mM IPTG (isopropyl-beta-D-thiogalactopyranoside), and 50 ug/ml kanamycin. M63+ medium contains 100 mM KH2PO4, 15 mM (NH4)2SO4, 50 μM CaCl2, 1 μM FeSO4, 50 μM MgCl2, 55 mM glucose, 25 mg/liter L-proline, 10 mg/liter thiamine HCl, sufficient NaOH to adjust the pH to 7.0, and 15 g/liter agar. The plates were incubated for 36 hours at 37° C.

Substance	glyphosate resistance (growth on glyphosate plates)
L2-6 (PFIDCGESGLSFRMFVPIVALSK; Clone L2-6)	glyphosate resistant
L2-9 (PFINCGESGLSFRMFIPMVALSK; Clone L2-9)	glyphosate resistant
L2-4 (PFIKCRESGLSMRMFAPMVALSK; Clone L2-4)	glyphosate resistant
L2-7 (PFIECGESGLSIRLFTPLVALSK; Clone L2-7)	glyphosate resistant
L2-A (PFINCDESGLSFRMFTPIVALSK; Clone L2-A)	glyphosate resistant
L2-3 (PFIDCDESGLSIRMFTPIVALSK; Clone L2-3)	glyphosate resistant
L2-8 (PFIDCSESGLSFRMFAPLVALSK; Clone L2-8)	glyphosate resistant
